Laboratory results: US12679836B2, “4H-pyrrolo[3,2-c]pyridin-4-one compounds” (Bayer Aktiengesellschaft, priority 2019, dated 2026)

What was measured:
[1] = target: Ba/F3-EGFR-insSVD cells (Homo sapiens, UniProt P00533, DUP768-770, cells depend on it); experiment: Ba/F3 cell survival assay (Cell Titer-Glo), EGFR-insSVD; type: cell-based; settings: without IL-3, with 10 ng/mL EGF, 48 h; read-out: BA/F3 (insSVD) IC50
Procedure, shortened: (§1)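 Ba/F3 cells stably expressing WT EGFR or EGFR-insSVD from retroviral transduction were grown without IL-3 on 10 ng/mL EGF. Cells were plated at 4000 cells/well, treated with compound for 48 h at 37° C, and viability was read by CellTiter-Glo luminescence.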

[2] = target: Ba/F3-ERBB2-A775_G776insYVMA cells (Homo sapiens, UniProt P04626, DUP772-775, cells depend on it); experiment: Ba/F3 cell survival assay, ERBB2 A775_G776insYVMA; type: cell-based; settings: without IL-3, without EGF, 48 h; read-out: BA/F3 (ERBB2 A775_G776 insYVMA) IC50
Protocol: (§2) 293T cells from ATCC were transfected with pBABEpuro expression constructs for mutant EGFR (V769_D770insASV, D770_N771insNPG, N771_P772insH, H773_V774insNPH, E746_A750del, L858R, D770_N771insSVD C797S, E746_A750del C797S, L858R C797S, L861Q) or mutant ERBB2 (A775_G776insYVMA) and pCL-Eco packaging vector using Fugene-6 transfection reagent from Promega. Plates were incubated at 37° C. for 48 h. Retrovirus was harvested by filtering the media supernatant through a 0.45 μm filter.
(§3) Ba/F3 cells purchased from DSMZ were grown in RPMI+10% FBS+10 ng/mL IL-3 and infected with filtered retroviral supernatant at a 1:2 dilution. Polybrene was added to a concentration of 8 μg/mL, plates were spun for 90 min, and incubated overnight at 37° C. 2 μg/mL puromycin was added to the infected cells 24 h after infection and cells were continually grown in the presence of puromycin and 10 ng/mL IL-3. Following stably expressing Ba/F3 cell lines were generated: Ba/F3-EGFR-V769_D770insASV, Ba/F3-EGFR-D770_N771insNPG, Ba/F3-EGFR-N771_P772insH, Ba/F3-EGFR-H773_V774insNPH, Ba/F3-EGFR-E746_A750del, Ba/F3-EGFR-L858R, Ba/F3-EGFR-D770_N771 insSVD C797S, Ba/F3-EGFR-E746_A750del C797S, Ba/F3-EGFR-L858R C797S, Ba/F3-EGFR L861Q and Ba/F3-ERBB2-A775_G776insYVMA (Ba/F3-vector-control).
(§4) For cell survival assays, Ba/F3 cells were grown to a density of 1-2 million cells per mL, spun down and resuspended in media without IL-3, and replated at a concentration 200,000-500,000 cells per mL. The cells ectopically expressing WT EGFR plated with 10 ng/mL Millipore Culture grade EGF and Ba/F3 cells containing mutant EGFR or Mutant ERBB2 were cultivated without EGF. The cells ectopically expressing pBABEpuro empty vector were plated with 10 ng/mL IL-3.
(§5) 2 days later, cells were plated in 50 μL in a 384 well plate at a concentration of 4000 cells per well for cells assayed in the absence of IL-3 and 2000 cells per well for cells assayed in the presence of IL-3. 100 nL of compound was added to each well using a 100 nL pin head, and plates were incubated at 37° C. for 48 h.
(§6) Cell viability was measured by adding 20 μL of Cell Titer-Glo Luminescent Cell Viability Reagent diluted 1:3 in PBS. Plates were sealed with Perkin Elmer Top-Seal, inverted several times to mix, and immediately centrifuged at 1000 rpm for 2 min. Plates were incubated in low light conditions for 8-10 min and luminescence was measured.

[3] = target: Ba/F3-EGFR-WT cells (Homo sapiens, UniProt P00533); experiment: Ba/F3 cell survival assay (Cell Titer-Glo), WT EGFR; type: cell-based; settings: without IL-3, with 10 ng/mL EGF, 48 h; read-out: BA/F3 (wild type) IC50
Procedure, shortened: as §1

[4] = tested on: HCC-827 cells (EGFRex19del); experiment: HCC-827 proliferation assay (Cell Titer Glo); type: cell-based; settings: Homo sapiens, HCC827, 72 h
Protocol: Cellular Data Description (HCC-827 Cells, EGFRex19del)
(§7) HCC-827 cells were purchased from ATCC. 400 HCC-829 cells per well were seeded in growth medium (RPM11640, 10% FCS) in a 384-well plate (CORNING #3571). Seed reference plate for time zero determination on the same day. All plates were incubated overnight at 37° C. After 24 hours, test compound were added in 7-step dilution using HP Compound printer and incubated at 37° C. for 72 h. After 3 days, 30 μL/well CTG solution (Promega Cell Titer Glo solution; catalog # G755B and G756B) were added to each well, incubated for 30 minutes and the plate were read on PheraStar. Proliferation is calculated after subtracting time zero luminescence values from day 4 values and comparing to untreated wells.
The IC50 values were determined using the four parameter fit.

[5] = tested on: PC9 cells (EGFRex19del); experiment: PC9 proliferation assay (Cell Titer Glo); type: cell-based; settings: Homo sapiens, PC-9, 72 h
Protocol: Cellular Data Description (PC9 Cells, EGFRex19del)
as §7, with “PC9” for “HCC-827”, “PC9” for “HCC-829”, “(DMEM,” for “(RPM11640,”, “wells. The IC50 values were determined using the four parameter fit.” for “wells.”

[6] = target: T1, Bub1 (Homo sapiens, UniProt O43683); experiment: Bub1 TR-FRET high ATP kinase assay; type: biochemical; settings: Bub1 high ATP (2 mM) IC50 [mol/l], 2 mM ATP
T1 construct: catalytic domain of human Bub1 (amino acids 704-1085); His6 (N); made in house; host or cells: Hi5 insect cells
Procedure, shortened: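 Recombinant His6-tagged human Bub1 catalytic domain (aa 704-1085), from Hi5 insect cells, phosphorylating a biotinylated peptide substrate at high ATP concentration. TR-FRET read-out.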

[7] = target: T2, EGFR with insertion of SVD between D770 and N771 (EGFR ins SVD) (Homo sapiens, UniProt P00533, DUP768-770); experiment: Exon20-Mutant-EGFR(D770_N771insSVD) kinase assay (TR-FRET); type: biochemical; settings: 2 mM ATP, several values per example where printed
T2 construct: made in house; host or cells: Sf9 insect cells (baculovirus)

[8] = target: Ba/F3-EGFR-L858R cells (Homo sapiens, UniProt P00533, L858R, cells depend on it); experiment: Ba/F3 cell survival assay, EGFR L858R; type: cell-based; settings: without IL-3, without EGF, 48 h; read-out: BA/F3 (EGFR L858R) IC50
Protocol: as §2, §3, §4, §5, §6

[9] = target: Ba/F3-EGFR L861Q cells (Homo sapiens, UniProt P00533, L861Q, cells depend on it); experiment: Ba/F3 cell survival assay, EGFR L861Q; type: cell-based; settings: without IL-3, without EGF, 48 h; read-out: BA/F3 (EGFR L861Q) IC50
Protocol: as §2, §3, §4, §5, §6

[10] = target: Ba/F3-EGFR-E746_A750del cells (Homo sapiens, UniProt P00533, DEL746-750, cells depend on it); experiment: Ba/F3 cell survival assay, EGFR E746_A750del; type: cell-based; settings: without IL-3, without EGF, 48 h; read-out: BA/F3 (EGFR E746_A750del) IC50
Protocol: as §2, §3, §4, §5, §6

T1 sequence (O43683 704-1085): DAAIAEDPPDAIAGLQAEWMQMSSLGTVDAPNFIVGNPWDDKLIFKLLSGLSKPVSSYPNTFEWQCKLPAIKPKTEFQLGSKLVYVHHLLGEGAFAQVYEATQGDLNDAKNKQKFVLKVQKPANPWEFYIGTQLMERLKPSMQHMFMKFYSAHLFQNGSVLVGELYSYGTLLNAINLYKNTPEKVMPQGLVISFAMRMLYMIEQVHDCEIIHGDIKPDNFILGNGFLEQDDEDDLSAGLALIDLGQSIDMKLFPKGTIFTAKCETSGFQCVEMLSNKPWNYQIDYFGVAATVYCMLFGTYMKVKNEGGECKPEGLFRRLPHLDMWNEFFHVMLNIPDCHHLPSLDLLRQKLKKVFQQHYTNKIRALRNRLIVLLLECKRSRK
Chain of Ba/F3-EGFR-WT cells (P00533 whole entry, change not shown): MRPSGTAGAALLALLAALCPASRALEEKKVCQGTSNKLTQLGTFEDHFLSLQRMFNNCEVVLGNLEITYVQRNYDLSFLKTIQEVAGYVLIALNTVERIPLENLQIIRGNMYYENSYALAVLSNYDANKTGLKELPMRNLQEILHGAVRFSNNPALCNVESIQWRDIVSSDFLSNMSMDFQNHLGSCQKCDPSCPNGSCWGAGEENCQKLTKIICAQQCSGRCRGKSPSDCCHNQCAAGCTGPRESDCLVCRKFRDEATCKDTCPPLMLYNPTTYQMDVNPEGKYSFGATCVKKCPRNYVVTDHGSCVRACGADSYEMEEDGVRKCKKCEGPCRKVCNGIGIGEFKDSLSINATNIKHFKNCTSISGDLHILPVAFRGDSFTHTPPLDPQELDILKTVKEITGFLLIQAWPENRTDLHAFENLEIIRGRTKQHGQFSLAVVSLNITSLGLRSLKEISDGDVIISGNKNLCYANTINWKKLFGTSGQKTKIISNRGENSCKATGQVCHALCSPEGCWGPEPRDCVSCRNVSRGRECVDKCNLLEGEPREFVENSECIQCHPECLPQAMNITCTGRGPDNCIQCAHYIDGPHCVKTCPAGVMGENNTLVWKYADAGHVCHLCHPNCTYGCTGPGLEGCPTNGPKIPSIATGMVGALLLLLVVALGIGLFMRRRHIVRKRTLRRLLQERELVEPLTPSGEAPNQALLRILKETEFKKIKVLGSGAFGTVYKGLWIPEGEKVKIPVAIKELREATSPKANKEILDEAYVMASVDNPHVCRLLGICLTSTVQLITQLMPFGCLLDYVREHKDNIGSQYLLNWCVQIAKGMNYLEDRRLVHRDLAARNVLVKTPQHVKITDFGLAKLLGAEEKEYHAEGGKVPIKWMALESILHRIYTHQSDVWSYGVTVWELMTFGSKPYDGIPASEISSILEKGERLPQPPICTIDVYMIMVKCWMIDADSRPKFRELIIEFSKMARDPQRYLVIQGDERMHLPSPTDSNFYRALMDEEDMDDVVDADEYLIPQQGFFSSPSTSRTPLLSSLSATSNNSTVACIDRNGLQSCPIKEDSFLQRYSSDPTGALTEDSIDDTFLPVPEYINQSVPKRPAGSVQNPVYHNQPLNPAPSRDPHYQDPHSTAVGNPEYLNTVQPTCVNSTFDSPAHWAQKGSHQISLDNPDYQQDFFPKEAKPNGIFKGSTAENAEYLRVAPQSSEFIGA
T2 sequence (P00533 with tags, fused parts or gaps DUP768-770): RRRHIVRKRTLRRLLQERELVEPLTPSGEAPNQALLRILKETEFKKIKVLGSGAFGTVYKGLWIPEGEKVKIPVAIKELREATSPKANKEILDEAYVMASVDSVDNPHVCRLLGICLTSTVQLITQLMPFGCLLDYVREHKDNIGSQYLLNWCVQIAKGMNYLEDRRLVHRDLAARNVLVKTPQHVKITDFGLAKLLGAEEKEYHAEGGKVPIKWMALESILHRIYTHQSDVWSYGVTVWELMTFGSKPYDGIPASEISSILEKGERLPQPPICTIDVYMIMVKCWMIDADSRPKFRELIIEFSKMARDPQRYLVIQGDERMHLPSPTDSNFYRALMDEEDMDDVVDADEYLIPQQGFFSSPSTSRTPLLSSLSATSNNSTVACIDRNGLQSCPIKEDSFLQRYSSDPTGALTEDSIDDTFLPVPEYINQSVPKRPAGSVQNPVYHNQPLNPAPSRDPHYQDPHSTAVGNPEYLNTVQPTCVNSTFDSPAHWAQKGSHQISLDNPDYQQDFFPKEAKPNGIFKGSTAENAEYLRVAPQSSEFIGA
Chain of Ba/F3-EGFR-insSVD cells (P00533 with tags, fused parts or gaps DUP768-770): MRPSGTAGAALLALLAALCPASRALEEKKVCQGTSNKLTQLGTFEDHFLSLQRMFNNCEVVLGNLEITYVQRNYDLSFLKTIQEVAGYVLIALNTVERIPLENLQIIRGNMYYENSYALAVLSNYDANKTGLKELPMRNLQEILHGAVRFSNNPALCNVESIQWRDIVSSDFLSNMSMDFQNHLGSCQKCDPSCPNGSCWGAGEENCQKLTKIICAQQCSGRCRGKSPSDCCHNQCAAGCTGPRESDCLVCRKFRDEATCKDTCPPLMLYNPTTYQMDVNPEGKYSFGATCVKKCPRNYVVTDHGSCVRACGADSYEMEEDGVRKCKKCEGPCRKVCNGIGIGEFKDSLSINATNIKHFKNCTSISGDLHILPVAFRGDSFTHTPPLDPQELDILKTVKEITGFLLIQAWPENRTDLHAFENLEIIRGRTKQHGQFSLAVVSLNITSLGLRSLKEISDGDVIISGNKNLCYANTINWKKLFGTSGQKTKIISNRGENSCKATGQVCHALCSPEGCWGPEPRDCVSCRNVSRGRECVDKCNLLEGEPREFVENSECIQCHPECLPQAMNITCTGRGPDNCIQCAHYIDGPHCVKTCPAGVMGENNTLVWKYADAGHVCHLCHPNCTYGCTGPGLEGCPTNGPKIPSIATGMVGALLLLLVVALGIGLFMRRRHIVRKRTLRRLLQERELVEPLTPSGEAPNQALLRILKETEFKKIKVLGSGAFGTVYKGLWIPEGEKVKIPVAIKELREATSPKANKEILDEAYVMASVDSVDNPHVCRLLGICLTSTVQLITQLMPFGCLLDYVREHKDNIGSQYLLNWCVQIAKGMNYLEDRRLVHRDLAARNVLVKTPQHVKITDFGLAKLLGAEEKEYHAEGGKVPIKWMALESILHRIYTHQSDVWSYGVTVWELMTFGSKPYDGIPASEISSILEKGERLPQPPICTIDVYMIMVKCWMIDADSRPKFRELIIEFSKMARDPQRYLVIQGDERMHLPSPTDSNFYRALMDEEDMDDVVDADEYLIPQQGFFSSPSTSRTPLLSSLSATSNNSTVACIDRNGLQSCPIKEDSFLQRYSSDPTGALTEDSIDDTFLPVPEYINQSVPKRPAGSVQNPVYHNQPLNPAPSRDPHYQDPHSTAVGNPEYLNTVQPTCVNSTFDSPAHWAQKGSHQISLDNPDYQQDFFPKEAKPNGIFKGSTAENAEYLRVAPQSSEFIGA
Chain of Ba/F3-EGFR-L858R cells (P00533 whole entry L858R): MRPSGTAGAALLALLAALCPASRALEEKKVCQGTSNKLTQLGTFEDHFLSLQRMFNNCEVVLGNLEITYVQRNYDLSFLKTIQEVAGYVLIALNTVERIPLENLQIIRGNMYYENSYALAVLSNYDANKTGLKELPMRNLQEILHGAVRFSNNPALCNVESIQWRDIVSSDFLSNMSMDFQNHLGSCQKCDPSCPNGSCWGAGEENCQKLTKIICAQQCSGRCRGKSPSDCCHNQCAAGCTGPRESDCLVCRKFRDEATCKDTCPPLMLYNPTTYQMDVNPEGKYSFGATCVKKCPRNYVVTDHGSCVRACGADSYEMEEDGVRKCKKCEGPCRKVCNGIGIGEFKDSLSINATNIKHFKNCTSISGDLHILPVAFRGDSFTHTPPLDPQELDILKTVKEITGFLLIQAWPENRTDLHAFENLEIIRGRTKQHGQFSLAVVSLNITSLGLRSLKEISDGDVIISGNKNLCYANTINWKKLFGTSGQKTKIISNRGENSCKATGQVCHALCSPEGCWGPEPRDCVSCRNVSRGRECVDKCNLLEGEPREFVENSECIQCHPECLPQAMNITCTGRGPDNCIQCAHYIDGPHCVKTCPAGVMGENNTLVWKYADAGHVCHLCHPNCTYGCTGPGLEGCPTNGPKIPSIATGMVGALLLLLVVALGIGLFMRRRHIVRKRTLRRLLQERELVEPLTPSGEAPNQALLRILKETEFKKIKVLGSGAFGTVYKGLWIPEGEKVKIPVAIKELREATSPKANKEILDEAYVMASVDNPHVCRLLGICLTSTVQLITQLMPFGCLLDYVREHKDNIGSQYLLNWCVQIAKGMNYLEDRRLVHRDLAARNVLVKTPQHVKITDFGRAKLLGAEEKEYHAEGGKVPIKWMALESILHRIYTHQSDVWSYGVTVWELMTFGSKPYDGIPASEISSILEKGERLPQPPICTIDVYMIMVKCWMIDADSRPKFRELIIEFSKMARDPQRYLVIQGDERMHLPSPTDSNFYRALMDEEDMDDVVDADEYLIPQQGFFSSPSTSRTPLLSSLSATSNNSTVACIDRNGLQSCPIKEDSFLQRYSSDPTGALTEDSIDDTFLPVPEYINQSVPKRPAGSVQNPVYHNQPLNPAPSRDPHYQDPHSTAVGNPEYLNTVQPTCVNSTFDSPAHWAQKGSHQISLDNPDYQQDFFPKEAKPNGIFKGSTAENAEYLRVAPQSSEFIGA

Structure (SMILES) | IC50 [4] [µM] | IC50 [5] [µM] | IC50 [6] [µM] | mutEGFR (D770_N771insSVD) kinase assay IC50 [7] [µM] | GI50 [1] [µM] | GI50 [2] [µM] | GI50 [3] [µM] | GI50 [8] [µM] | GI50 [9] [µM] | GI50 [10] [µM]
COc1c(F)cccc1Nc1c(-c2ccncc2OCC2COCCO2)[nH]c2c1C(=O)NCC2 (single isomer, unassigned) [Example 6, 2-{3-[(1,4-dioxan-2-yl)methoxy]pyridin-4-yl}-3-(3-fluoro-2-methoxyanilino)-1,5,6,7-tetrahydro-4H-pyrrolo[3,2-c]pyridin-4-one] | < 0.003 | 0.00194 | 6.31 | 0.0001 | 0.0503 | 0.0318 | 0.785 | – | – | –
O=C1NCCc2[nH]c(-c3ccncc3OCC3COCCO3)c(Nc3cccc(F)c3CC(F)F)c21 (centres unmarked) [Example 40, 3-[2-(2,2-difluoroethyl)-3-fluoro-anilino]-2-[3-(1,4-dioxan-2-ylmethoxy)-4-pyridyl]-1,5,6,7-tetrahydropyrrolo[3,2-c]pyridin-4-one] | – | – | 8.62 | 0.000115 | 0.119 | – | 0.867 | – | – | –
CN1CCO[C@H](COc2cnccc2-c2[nH]c3c(c2Nc2cccc(F)c2CC(F)F)C(=O)NCC3)C1 [Example 41, 3-[2-(2,2-difluoroethyl)-3-fluoroanilino]-2-(3-{[(2S)-4-methylmorpholin-2-yl]methoxy}pyridin-4-yl)-1,5,6,7-tetrahydro-4H-pyrrolo[3,2-c]pyridin-4-one] | – | – | > 20 | 0.000291 | 0.0775 | – | 0.695 | – | – | –
CCc1c(Cl)cccc1Nc1c(-c2ccncc2OCC2COCCO2)[nH]c2c1C(=O)NCC2 (centres unmarked) [Example 52, 3-(3-chloro-2-ethyl-anilino)-2-[3-(1,4-dioxan-2-ylmethoxy)-4-pyridyl]-1,5,6,7-tetrahydropyrrolo[3,2-c]pyridin-4-one] | – | – | 0.729 | 0.000226 | 0.0134 | – | 0.547 | – | – | –
CCc1c(F)cccc1Nc1c(-c2ccncc2OCC2COCCO2)[nH]c2c1C(=O)NCC2 (centres unmarked) [Example 65, 2-(3-{[1,4-dioxan-2-yl]methoxy}pyridin-4-yl)-3-(2-ethyl-3-fluoroanilino)-1,5,6,7-tetrahydro-4H-pyrrolo[3,2-c]pyridin-4-one] | – | – | 3.58 | 0.000136 | 0.0134 | – | 0.287 | – | – | –
CCc1c(F)cccc1Nc1c(-c2ccncc2OCC2COC(C)(C)CO2)[nH]c2c1C(=O)NCC2 (centres unmarked) [Example 68, 2-(3-{[5,5-dimethyl-1,4-dioxan-2-yl]methoxy}pyridin-4-yl)-3-(2-ethyl-3-fluoroanilino)-1,5,6,7-tetrahydro-4H-pyrrolo[3,2-c]pyridin-4-one] | – | – | > 20 | 0.000267 | 0.0373 | – | 0.644 | – | – | –
COc1c(Cl)cccc1Nc1c(-c2ccncc2OC(C)C2CN(C)CCO2)[nH]c2c1C(=O)NCC2 (centres unmarked) [Example 71, 3-(3-chloro-2-methoxyanilino)-2-[3-({1-[4-methylmorpholin-2-yl]ethyl}oxy)pyridin-4-yl]-1,5,6,7-tetrahydro-4H-pyrrolo[3,2-c]pyridin-4-one] | – | – | > 20 | 0.000405 | 0.132 | – | 1.42 | – | – | –

More lines, main results first:

IC50 [4] [µM] | IC50 [5] [µM] | IC50 [6] [µM] | mutEGFR (D770_N771insSVD) kinase assay IC50 [7] [µM] | Structure (SMILES) | GI50 [1] [µM] | GI50 [2] [µM] | GI50 [3] [µM] | GI50 [8] [µM] | GI50 [9] [µM] | GI50 [10] [µM]
– | – | 17.2 | 0.000547 | CCc1c(Cl)cccc1Nc1c(-c2ccncc2OCC2CN(C)CCO2)[nH]c2c1C(=O)NCC2 (centres unmarked) [Example 29, 3-(3-chloro-2-ethylanilino)-2-{3-[(4-methylmorpholin-2-yl)methoxy]pyridin-4-yl}-1,5,6,7-tetrahydro-4H-pyrrolo[3,2-c]pyridin-4-one] | 0.0336 | – | 0.621 | 0.000964 | 0.0162 | 0.000332
– | – | 2.41 | 0.000225 | Cc1c(Cl)cccc1Nc1c(-c2ccncc2OC[C@H]2COCCN2C)[nH]c2c1C(=O)NCC2 [Example 43, 3-(3-chloro-2-methylanilino)-2-(3-{[(3R)-4-methylmorpholin-3-yl]methoxy}pyridin-4-yl)-1,5,6,7-tetrahydro-4H-pyrrolo[3,2-c]pyridin-4-one] | 0.0605 | – | 1.25 | – | – | –
– | – | 7.59 | 0.000257 | CCc1c(Cl)cccc1Nc1c(-c2ccncc2OC[C@H]2CN(C)CCO2)[nH]c2c1C(=O)NCC2 [Example 55, 3-(3-chloro-2-ethylanilino)-2-(3-{[(2R)-4-methylmorpholin-2-yl]methoxy}pyridin-4-yl)-1,5,6,7-tetrahydro-4H-pyrrolo[3,2-c]pyridin-4-one] | 0.124 | – | 1.31 | – | – | –
– | – | > 20 | 0.000237 | Cc1c(F)cccc1Nc1c(-c2ccncc2OCC2CN(C)CCO2)[nH]c2c1C(=O)NCC2 (centres unmarked) [Example 62, 3-(3-fluoro-2-methylanilino)-2-(3-{[4-methylmorpholin-2-yl]methoxy}pyridin-4-yl)-1,5,6,7-tetrahydro-4H-pyrrolo[3,2-c]pyridin-4-one] | 0.0267 | – | 0.697 | – | – | –
